{"source": "patent US20090202481A1", "about": "“Composition for Sustained Release Delivery of Proteins or Peptides” (priority 2008, published 2009)", "type_in_all_cases": "physicochemical", "key": {"[1]": {"assay": "Physical stability (phase separation, top/bottom ratio) of SAIB/NMP formulations standing at room temperature", "protocol": "(§1) Octreotide acetate (OCT-Ac) and octreotide conjugate (PAL-PEG-BA-OCT) powders were dissolved in NMP. Then the solutions containing various forms of octreotide were thoroughly mixed with SAIB solution in NMP (90% w/w).\n(§2) The formulations as prepared above were allowed to stand at room temperature (˜22° C.). At predefined time points, the appearance of the formulations was recorded and an aliquot of each of both the supernatant and bottom composition was collected and analyzed by HPLC for octreotide content. The physical stability of the formulations was determined by direct observation or using the ratio of the content of the octreotide in the supernatant to that in the bottom composition. If the ratio equals to 1.0, the formulation is uniform and stable."}, "[2]": {"assay": "Purity of the octreotide in formulations at room temperature over time (HPLC)", "conditions": "SAIB/NMP formulation", "protocol": "as §1, §2"}, "[3]": {"assay": "In vitro release of octreotide from SAIB/NMP formulations into PBS 7.4 at 37° C.", "conditions": "PBS 7.4, 37° C., SAIB/NMP formulation", "protocol": "Formulations were prepared by mixing octreotide acetate (OCT-Ac) and octreotide conjugate (PAL-PEG-BA-OCT) powders with SAIB solution in NMP (90% w/w).\nDue to the physical instability of the formulation containing OCT-Ac, the in vitro release was investigated immediately after the preparation of the formulations. An aliquot of the suspension was used for the in vitro release. About 0.1 mL of each formulation containing octreotide was injected into 3 mL of releasing buffer (PBS 7.4, containing 0.1% sodium azide) in a 4 mL glass vial. The vials were incubated at 37° C. and sampled at various time points. At each time point, 2 mL of release medium was removed and 2 mL of fresh release medium added. The collected samples were analyzed for peptide concentration and integrity by HPLC using an YMC-Pack ODS-120A column. Triplicate samples were used for each formulation."}}}
{"smiles": "C[C@@H](O)[C@@H]1NC(=O)[C@H](CCCCN)NC(=O)[C@@H](Cc2c[nH]c3ccccc23)NC(=O)[C@H](Cc2ccccc2)NC(=O)[C@@H](NC(=O)[C@H](N)Cc2ccccc2)CSSC[C@@H](C(=O)N[C@H](CO)[C@@H](C)O)NC1=O", "note": "[OCT-Ac, Octreotide acetate]", "values": [{"measurement": "Appearance when combined with SAIB/NMP solution", "setting": "[1]; on mixing, about 6% octreotide content", "result": "phase separation occurred immediately"}, {"measurement": "NMP in the bottom phase", "setting": "[1]; room temperature, SAIB/NMP formulation", "result": "slightly more NMP"}, {"measurement": "OCT ratio top/bottom", "setting": "[1]; room temperature, after 5 days", "result": "less than 0.03"}, {"measurement": "Concentration of the octreotide in the bottom phase relative to the upper phase", "setting": "[1]; room temperature, after two days", "result": "about 20 folds"}, {"measurement": "Phase separation of formulation (FIG. 1)", "setting": "[1]; stood at room temperature for 24 h", "result": "apparent phase separation occurred"}, {"measurement": "Octreotide degraded in the bottom phase", "setting": "[2]; after 7 days", "result": "more than 20%"}, {"measurement": "Octreotide degraded in the supernatant", "setting": "[2]; after 7 days", "result": "More than half"}, {"measurement": "Octreotide degraded or reacted", "setting": "[2]; after two hours", "result": "about 4%"}, {"measurement": "Initial burst release (FIG. 2)", "setting": "[3]", "result": "very high initial burst release"}, {"measurement": "Octreotide released", "setting": "[3]; after two weeks", "result": "more than 90%"}, {"measurement": "Octreotide released", "setting": "[3]; within 24 hours", "result": "More than 60%"}]}
